Here are results for three compounds from patent publication US10434191B2, “Optical imaging probes” (THE UNIVERSITY COURT OF THE UNIVERSITY OF EDINBURGH, priority 2011, dated 2019).

“Also recorded” adds a separate entry of the source.

The subject of assay [1] is freshly isolated human neutrophils (PMNs). Briefly: Live time-lapse confocal imaging of probe uptake in activated human neutrophils. It is filed as cell-based. Here is the method: (§1) Human peripheral blood leukocytes from healthy volunteers were prepared as previously described^25. Briefly, citrated blood was centrifuged at room temperature for 20 min at 350 g, and platelet-rich plasma was removed. Autologous serum was prepared by recalcification of platelet-rich plasma by addition of CaCl2 to a final concentration of 2 mM. Leukocytes were separated from erythrocytes by dextran sedimentation using 0.6% dextran T500 (Pharmacia, Milton Keynes, UK), and the leukocyte-rich upper layer was then fractionated using isotonic Percoll (Pharmacia). Neutrophils and mononuclear leukocytes (PBMC) were harvested from the 68%181% and 55/68% interfaces, respectively. In some experiments, neutrophils were labelled with DiD (Invitrogen, molecular probes) (2.5 μM) in D-PBS (w/o Ca/Mg) for 20 min at room temperature.
A laser-scanning confocal imaging system (LSM510; Carl Zeiss, Jena, Germany), incorporating an upright Axioskop FS2 microscope (63× objective) was used for image acquisition and processing. Exposure to 488 nm light was limited to 1-6% of the maximum laser power in order to minimize photobleaching and toxicity. In all cases, images were obtained without Kalman averaging and typically with a pixel dwell time of 3.2 μs with a pinhole diameter corresponding to 1 Airy unit. In multiple-labelling experiments pinhole diameters were adjusted to give optical Z-sections of equivalent depths, corresponding to 1 Airy unit for the longest excitation wavelength. All live time-lapse imaging of was performed in IMDM. Coverslips were transferred to a thermostatted environmental stage (POC Mini) maintained at 30° C.^26. Drugs were added by bath addition. In experiments where fluorescein was examined alone, the fluorophore was excited with a dedicated 488 nm line, and emitted light reflected from a NFT545 filter and passed through an LP505 filter.
In multiple labelling experiments involving membrane (DiD, Invitrogen), or dextran-647, and IQR probes, images were obtained simultaneously. DiD or dextran-647 was excited with a dedicated 633 nm line, and emitted light detected with meta detector (650-705 nm), whereas Fluorescein was excited with a dedicated 488 nm line, and emitted light reflected from a NFT545 filter and passed through an LP505 filter.
Neutrophils and mononuclear cells (6×10^5 cells total), or PBMC-derived macrophages, were seeded onto glass coverslips pre-coated with 10 μg/ml fibronectin (Sigma). Cells were allowed to adhere and 10 μM (final concentration) IQR1.2 added to wells prior to transfer to POC mini and placement in environmental chamber. Live imaging commenced at 30 s intervals. Baseline images were acquired for 10-15 min prior to addition of A21387 (10 μM, Sigma) and live time-lapse confocal images acquired for further 20 min. Where sivelestat or dynasore was included, cells were pretreated for 10 minutes prior to imaging.

A further assay concerns human neutrophil lysate. Briefly: Fluorescent microplate reader dequenching with neutrophil lysate. Type of assay: biochemical. Conditions: 50 uM. As to the method: For experiments using neutrophil lysate, IQR4 (0.5 uM) is incubated with freeze-thawed neutrophil lysate (10×10^8 cells/ml) in IMDM with or without sivelestat (50 uM). The timecourse of fluorescence dequenching was followed for 30 min with a fluorescence microplate reader (excitation 480/20, emission 528/25).

The target of assay [2] is T1, recombinant human neutrophil elastase (HNE) (Homo sapiens, UniProt P08246).
T1 sequence (P08246 30-267): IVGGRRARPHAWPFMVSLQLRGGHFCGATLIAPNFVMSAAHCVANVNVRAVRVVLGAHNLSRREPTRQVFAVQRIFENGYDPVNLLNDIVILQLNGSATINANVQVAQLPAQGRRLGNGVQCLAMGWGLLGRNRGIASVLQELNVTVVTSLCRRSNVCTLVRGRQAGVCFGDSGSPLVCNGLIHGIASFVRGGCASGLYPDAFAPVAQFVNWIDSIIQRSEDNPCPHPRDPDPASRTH
The assay is described as follows: Fluorescent microplate reader dequenching with HNE. To be noted: 50 uM. It is filed as biochemical.
Method: IQR4 (0.5 uM) was incubated with of human neutrophil elastase (HNE; 11.3 ug/ml) in reaction buffer (50 mm Hepes buffer, pH 7.4, 0.75 m NaCl, 0.05% Igepal CA-630 (v/v)) with or without of sivelestat (50 uM). The timecourse of fluorescence dequenching was followed for 30 min with a fluorescence microplate reader (excitation 480/20, emission 528/25).

For assay [3], the system named is freshly isolated human neutrophils. Briefly: In vitro Cellvizio 488 nm fibreoptic confocal imaging. It is filed as cell-based. Here is the method:
Human neutrophils were isolated as described above and suspended in PBS with or without activating agents. A fibreoptic confocal system (488 Cellvizio) was used to acquire images in eppendorfs of cells both in the presence of free FAM and IQRs and after washing cells of free FAM and IQR in media. Imaging was performed for 60 s and representative still frames converted to bmp format.

The subject of assay [4] is PMNs, monocytes and lymphocytes. The assay is described as follows: Human cell specificity by live confocal imaging. It is filed as cell-based. Conditions: PMNs vs monocytes vs lymphocytes. Here is the method:
as §1, with “temperature. […]” for “temperature.”
In multiple labelling experiments using IQR probes in combination with syto-85 (Invitrogen, 2.5 μM, 30 minutes, 37° C.), images were acquired sequentially. Fluorescein was excited with a dedicated 488 nm line and emitted light reflected from a NFT545 filter and passed through an LP505 filter whereas syto-85 were excited with a dedicated 543 nm line, and emitted light detected with meta detector ([…]). […]

As to `O=C(N/N=C/c1ccc(O)c(O)c1)c1cc2ccccc2cc1O` [Dynasore], the “effect on uptake of IQR1.2 by activated neutrophils” value in assay [1] (pre-treatment, probe IQR1.2) is given as “prevented”. Further, in assay [1] (pretreatment, probe FAM), the “effect on uptake of FAM by activated neutrophils” value was “prevented”. Besides, in assay [1] (probe IQR1), the “effect on cell-associated fluorescence of IQR1 in activated neutrophils” value was “inhibited”.

As to `CC(C)(C)C(=O)Oc1ccc(S(=O)(=O)Nc2ccccc2C(=O)NCC(=O)O)cc1` [sivelestat], the “effect on neutrophil lysate-induced dequenching of IQR4” value in the assay with human neutrophil lysate is “blocked; also recorded: inhibited”. In assay [2], the “effect on HNE-induced dequenching of IQR4” value is given as “inhibited; also recorded: blocked”. In addition, the “effect on punctate cell-associated fluorescence from probe IQR4 in activated neutrophils” value in assay [1] (50 μM, pre-treatment 10 mins, A23187) was “blocked; also recorded: inhibits the appearance of this punctate cell-associated fluorescence”.

In the case of 5(6)-carboxyfluorescein [FAM], the “probe uptake after pretreatment with dynamin inhibitor Dynasore” value in assay [1] (activated neutrophils, Dynasore pretreatment) is “prevented”. Besides, the “appearance of punctate cell-associated fluorescence” value in assay [1] (activation with 10 μM A23187 (calcium ionophore), confocal imaging) was “rapid appearance of punctate cell-associated fluorescence”. Besides, in assay [3] (15 min exposure, probe in medium), the “resolution of activated cells before wash” value is recorded as “not possible to resolve activated cells”. Besides, the “visibility of activated cells after washing” value in assay [3] (cells spun down, probe removed) is given as “activated cells are visible”. Further, the “cell specificity of probe uptake/activation” value in assay [4] is “Only activated PMN's internalise FAM”.
